Assay results reported in patent US5646173A, “Tricyclic pyrrole derivatives useful as 5-HT selective agents” (Hoffmann-La Roche Inc., priority 1993, dated 1997).
pIC50, pKi: −log10 of the molar value. Counter-ions that a name gives are not always drawn. Like-named read-outs stand apart in the source and are kept apart here.

How the values were obtained:
[1] = molecular target: T1, 5HT2C receptor (Rattus norvegicus, UniProt P08909); test: [3H]-5-HT binding assay (Method II b); design: expressed in transfected cells; host or cells: clonal 5-HT1C cell line; details: for Ki: 5HT2C, [3H]-5-HT, Method II, read-out: pki, test method b (converted)
T1 sequence (P08909 33-460): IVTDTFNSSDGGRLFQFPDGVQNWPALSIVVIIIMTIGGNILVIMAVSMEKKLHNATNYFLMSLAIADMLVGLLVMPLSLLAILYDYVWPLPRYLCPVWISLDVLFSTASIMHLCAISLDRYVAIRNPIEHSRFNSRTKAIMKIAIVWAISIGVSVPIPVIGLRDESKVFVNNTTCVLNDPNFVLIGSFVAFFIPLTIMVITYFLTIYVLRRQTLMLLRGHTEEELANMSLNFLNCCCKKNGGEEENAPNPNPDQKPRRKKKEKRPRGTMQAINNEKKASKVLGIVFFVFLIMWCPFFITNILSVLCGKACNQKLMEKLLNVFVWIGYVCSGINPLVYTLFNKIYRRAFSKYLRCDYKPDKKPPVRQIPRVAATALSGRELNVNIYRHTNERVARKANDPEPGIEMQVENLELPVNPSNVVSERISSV
Source text: b) For the binding to the 5HT2C receptor in accordance with the [3H]-5-HT binding assay according to the method of S. J. Peroutka et al., Brain Research 584, 191-196 (1992).
(§1) The pki values (pki =-log^10 Ki) of the test substances are given. […] [L] is the concentration of ligand and the KD value is the dissociation constant of the ligand.

[2] = molecular target: T2, 5HT2A receptor (Homo sapiens, UniProt P28223); test: [3H]-DOB binding assay (Method II c)
T2 construct: expressed in transfected cells; host or cells: transfected mammalian cells (inferred from the cited method)
Source text: c) For the binding to the 5HT2A receptor in accordance with the [3H]-DOB binding assay according to the method of T. Branchek et al., Molecular Pharmacology 38, 604-609 (1990).
as §1

[3] = molecular target: T3, human-5HT1A receptors (Homo sapiens, UniProt P08908); test: [3H]-5-HT displacement on recombinant human 5HT1A receptors expressed in 3T3 cells of mice (Method II a); format: binding; details: for Ki: human 5HT1A, [3H]-5-HT (1 nM), 3T3 cell membranes, Method II, read-out: pki, test method a (converted)
T3 construct: expressed in transfected cells; host or cells: mouse 3T3 cells
T3 sequence (P08908 1-422): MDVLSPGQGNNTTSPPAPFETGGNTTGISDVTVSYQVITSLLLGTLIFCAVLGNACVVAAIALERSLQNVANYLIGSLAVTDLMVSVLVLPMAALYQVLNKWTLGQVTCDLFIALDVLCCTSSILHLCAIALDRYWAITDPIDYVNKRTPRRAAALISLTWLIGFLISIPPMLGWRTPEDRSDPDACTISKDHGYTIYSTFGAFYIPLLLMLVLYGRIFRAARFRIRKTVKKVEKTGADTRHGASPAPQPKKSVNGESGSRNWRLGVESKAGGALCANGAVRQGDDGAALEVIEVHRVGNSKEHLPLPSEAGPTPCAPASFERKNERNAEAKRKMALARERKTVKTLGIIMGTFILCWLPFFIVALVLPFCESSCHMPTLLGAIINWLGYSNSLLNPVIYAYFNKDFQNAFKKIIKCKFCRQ
Source text: [L] is the concentration of ligand and the KD value is the dissociation constant of the ligand.

[4] = molecular target: T1, 5HT2C receptor; test: Penile erection (rats); format: in vivo; design: from tissue; host or cells: living rat; details: s.c., number of penile erections within 45 minutes following administration
Procedure: It has been shown that penile erection is dependent on the stimulation of the 5HT2C receptor (see Berendsen & Broekkamp, Eur. J. Pharmacol, 135, 179-184 (1987)).
The number of penile erections was determined within 45 minutes following administration of the test substance to the animal.

[5] = molecular target: T4, 5HT2A receptor (Rattus norvegicus, UniProt P14842); test: biochemical; format: binding
T4 construct: from tissue; host or cells: rat frontal cortex membranes (inferred from the cited method)
Procedure: (§2) The binding of the compounds of formula I in accordance with the invention to serotonin receptors was determined in vitro by standard methods. The preparations were investigated in accordance with the assays given hereinafter:
c) For the binding to the 5HT2A receptor in accordance with the ^3 H-ketanserine binding assay according to the method of J. E. Leysen, Molecular Pharmacology 21, 301-304 (1981).

[6] = molecular target: T5, 5HT2C receptor (Sus scrofa, UniProt K7GSR7); test: 3H-mesulergine binding assay (Method I b)
T5 construct: from tissue
T5 sequence (K7GSR7 1-457): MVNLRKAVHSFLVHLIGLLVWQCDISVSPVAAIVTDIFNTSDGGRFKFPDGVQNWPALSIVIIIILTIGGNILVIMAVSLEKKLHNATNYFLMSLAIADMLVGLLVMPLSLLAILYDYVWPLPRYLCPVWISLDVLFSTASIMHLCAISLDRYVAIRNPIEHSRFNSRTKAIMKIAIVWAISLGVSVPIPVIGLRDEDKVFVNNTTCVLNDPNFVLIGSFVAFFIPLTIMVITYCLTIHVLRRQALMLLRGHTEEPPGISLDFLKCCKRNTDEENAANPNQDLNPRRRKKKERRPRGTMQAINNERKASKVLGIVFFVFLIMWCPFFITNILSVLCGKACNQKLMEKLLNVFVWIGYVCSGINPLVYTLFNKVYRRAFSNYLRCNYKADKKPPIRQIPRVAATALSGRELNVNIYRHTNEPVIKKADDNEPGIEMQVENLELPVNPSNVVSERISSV
Procedure: as §2
b) For the binding to the 5HT2C receptor in accordance with the ^3 H-mesulergine binding assay according to the method of A. Pazos et al., Europ. J. Pharmacol. 106, 539-546 or. D. Hoyer, Receptor Research 8, 59-81 (1988).

[7] = molecular target: 5HT1A receptor; test: 3H-8-OH-DPAT binding assay (Method I a); details: read-out: IC50, test method a
Procedure: The binding of the compounds of formula I in accordance with the invention to serotonin receptors was determined in vitro by standard methods. The preparations were investigated in accordance with the assays given hereinafter: […]

[8] = rat, sc, 0.75 h, read-out: ED50

T2 sequence (P28223 whole entry): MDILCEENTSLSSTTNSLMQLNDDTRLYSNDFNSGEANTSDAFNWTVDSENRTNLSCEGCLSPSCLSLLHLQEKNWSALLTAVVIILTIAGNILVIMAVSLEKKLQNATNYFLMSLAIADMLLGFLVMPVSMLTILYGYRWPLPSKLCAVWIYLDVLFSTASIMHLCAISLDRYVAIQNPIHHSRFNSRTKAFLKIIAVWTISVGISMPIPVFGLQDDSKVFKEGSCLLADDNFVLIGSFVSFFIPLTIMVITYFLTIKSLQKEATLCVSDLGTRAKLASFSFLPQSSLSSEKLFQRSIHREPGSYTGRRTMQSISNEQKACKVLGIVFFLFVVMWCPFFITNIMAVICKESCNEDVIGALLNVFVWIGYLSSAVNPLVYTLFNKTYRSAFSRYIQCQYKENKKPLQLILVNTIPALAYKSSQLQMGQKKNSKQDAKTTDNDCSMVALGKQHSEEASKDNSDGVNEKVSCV
T4 sequence (P14842 whole entry): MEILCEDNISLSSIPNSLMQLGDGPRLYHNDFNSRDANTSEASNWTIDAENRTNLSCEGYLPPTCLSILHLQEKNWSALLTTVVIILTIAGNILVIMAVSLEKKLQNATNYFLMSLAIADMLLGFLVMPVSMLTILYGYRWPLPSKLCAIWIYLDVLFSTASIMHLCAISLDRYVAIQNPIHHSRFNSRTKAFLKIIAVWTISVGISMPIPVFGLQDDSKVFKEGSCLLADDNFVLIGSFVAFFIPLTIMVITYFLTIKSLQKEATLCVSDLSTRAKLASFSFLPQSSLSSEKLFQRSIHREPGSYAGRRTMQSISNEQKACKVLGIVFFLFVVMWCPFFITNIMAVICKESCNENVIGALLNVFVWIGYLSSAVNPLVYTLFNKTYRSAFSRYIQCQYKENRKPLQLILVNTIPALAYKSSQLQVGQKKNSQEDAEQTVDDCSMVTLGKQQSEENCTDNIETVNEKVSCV

SMILES | Ki [1] | pKi [2] | pKi [3] | pKi [1] | other results
CC(N)Cn1ccc2c1-c1cccc(Cl)c1C2 (racemic) [Example 37, (RS)-2-(5-chloro-1,4-dihydro-indeno[1,2-b]pyrrol-1-yl)-1-methyl-ethylaminefumarate (1:0.5)] | 35.5 nM | 6.51 | 5.32 |  | 
Cc1cccc2c1Cc1ccn(CC(C)N)c1-2 (racemic) [Example 50, (RS)-2-(5-methyl-1,4-dihydro-indeno[1,2-b]pyrrol-1-yl)-1-methyl-ethylaminefumarate (1:0.5)] |  | 6.35 |  | 6.97 | Ki [3]: 2400 nM
Cc1ccc2c(c1)-c1c(ccn1C[C@H](C)N)C2(C)C.O=C(O)/C=C/C(=O)O [Example 1, (S)-2-(4,4,7-trimethyl-1,4-dihydro-indeno[1,2-b]pyrrol-1-yl)-1-methyl-ethylamine fumarate (1:1)] |  | 7.27 | 5.66 | 8.49 | ED50 [4, 8]: 0.9 mg/kg
COc1ccc2c(c1)-c1c(ccn1C[C@H](C)N)C2(C)C.O=C(O)/C=C/C(=O)O [Example 2, (S)-2-(7-methoxy-4,4-dimethyl-1,4-dihydro-indeno[1,2-b]pyrrol-1-yl)-1-methyl-ethylamine fumarate (1:1)] |  | 8.03 | 5.39 | 9.44 | ED50 [4, 8]: 0.5 mg/kg
COc1ccc2c(c1)-c1c(ccn1C[C@H](C)N)C2 [Example 3, (S)-2-(7-methoxy-1,4-dihydro-indeno[1,2-b]pyrrol-1-yl)-1-methyl-ethylaminefumarate (1:0.5)] |  | 7.12 |  | 8.16 | pIC50 [5]: 5.67; pIC50 [6]: 7.94; ED50 [4, 8]: 1.2 mg/kg; pIC50 [7]: 5.55
C[C@H](N)Cn1ccc2c1-c1cc(Cl)ccc1C2 [Example 4, (S)-2-(7-chloro-1,4-dihydro-indeno[1,2-b]pyrrol-1-yl)-1-methyl-ethylamine fumarate (1:0.5)] |  |  |  |  | pIC50 [5]: 5.66; pIC50 [6]: 7.31; ED50 [4, 8]: 2.7 mg/kg; pIC50 [7]: 5.49
COc1ccc2c(c1)-c1c(ccn1C[C@H](C)N)CC2.O=C(O)/C=C/C(=O)O [Example 5, (S)-2-(4,5-dihydro-8-methoxy-1H-benz[g]indol-1-yl)-1-methyl-ethylamine fumarate (1:1)] |  |  |  |  | pIC50 [5]: 6.23; pIC50 [6]: 7.69; ED50 [4]: 3.20 mg/kg, s.c.; pIC50 [7]: 5.59
CCc1ccc2c(c1)-c1c(ccn1C[C@H](C)N)C2(C)C [Example 8, (S)-2-(7-ethyl-4,4-dimethyl-1,4-dihydro-indeno[1,2-b]pyrrol-1-yl)-1-methyl-ethylamine fumarate (1:1)] | 2.34 nM | 7.18 | 5.34 |  | 
C[C@H](N)Cn1ccc2c1-c1cc(F)ccc1C2(C)C [Example 9, (S)-2-(7-fluoro-4,4-dimethyl-1,4-dihydro-indeno[1,2-b]pyrrol-1-yl)-1-methyl-ethylamine fumarate (1:1)] |  | 7.46 | 5.56 | 8.29 | 
CCC1(CC)c2ccc(OC)cc2-c2c1ccn2C[C@H](C)N [Example 12, (S)-2-(7-methoxy-4,4-diethyl-1,4-dihydro-indeno[1,2-b]pyrrol-1-yl)-1-methyl-ethylamine fumarate (1:0.5)] | 10 nM | 6.94 | 5.00 |  | 
C[C@H](N)Cn1ccc2c1-c1cc(-c3ccccc3)ccc1C2 [Example 14, (S)-2-(7-phenyl-1,4-dihydro-indeno[1,2-b]pyrrol-1-yl)-1-methyl-ethylamine fumarate (1:0.5)] |  | 7.62 |  | 7.78 | Ki [3]: 10000 nM
CCc1ccc2c(c1)-c1c(ccn1C[C@H](C)N)C2 [Example 17, (S)-2-(7-ethyl-1,4-dihydro-indeno[1,2-b]pyrrol-1-yl)-1-methyl-ethylamine fumarate (1:0.5)] |  | 6.25 |  | 7.74 | Ki [3]: 10000 nM
C[C@H](N)Cn1ccc2c1-c1cc(F)c(F)cc1C2 [Example 25, (S)-2-(6,7-difluoro-1,4-dihydro-indeno[1,2-b]pyrrol-1-yl)-1-methyl-ethylamine fumarate (1:1)] | 41.7 nM | 6.26 | 5.00 |  | 
COc1cc2c(cc1Cl)C(C)(C)c1ccn(C[C@H](C)N)c1-2 [Example 26, (S)-2-(6-chloro-7-methoxy-4,4-dimethyl-1,4-dihydro-indeno[1,2-b]pyrrol-1-yl)-1-methyl-ethylamine fumarate (1:1)] | 26.3 nM | 7.17 | 5.25 |  | 
Cc1ccc2c(c1)-c1c(ccn1C[C@H](C)N)C21CCCC1 [Example 44, (S)-1-methyl-2-(7'-methyl-1',4'-dihydro-spiro[cyclopentane]-1,4'-indeno[1,2-b]pyrrol-1-yl)-ethylamine fumarate (1:1)] |  | 6.57 |  | 7.10 | Ki [3]: 1860 nM
